According to ChEMBL document CHEMBL3431459, “Roche carnitine palmitoyltransferase modulator screening data (supplementary data associated with the publication CHEMBL2216752)”:
In brackets after ≈: the same amount, converted by molar mass.

Assays:
[1] = biological target: T1, Carnitine O-palmitoyltransferase 1, liver isoform (Homo sapiens, UniProt P50416); experiment: (§1) SUPPLEMENTARY: Inhibition of Carnitine palmitoyltransferase 1, liver isoform
T1 sequence (P50416 whole entry): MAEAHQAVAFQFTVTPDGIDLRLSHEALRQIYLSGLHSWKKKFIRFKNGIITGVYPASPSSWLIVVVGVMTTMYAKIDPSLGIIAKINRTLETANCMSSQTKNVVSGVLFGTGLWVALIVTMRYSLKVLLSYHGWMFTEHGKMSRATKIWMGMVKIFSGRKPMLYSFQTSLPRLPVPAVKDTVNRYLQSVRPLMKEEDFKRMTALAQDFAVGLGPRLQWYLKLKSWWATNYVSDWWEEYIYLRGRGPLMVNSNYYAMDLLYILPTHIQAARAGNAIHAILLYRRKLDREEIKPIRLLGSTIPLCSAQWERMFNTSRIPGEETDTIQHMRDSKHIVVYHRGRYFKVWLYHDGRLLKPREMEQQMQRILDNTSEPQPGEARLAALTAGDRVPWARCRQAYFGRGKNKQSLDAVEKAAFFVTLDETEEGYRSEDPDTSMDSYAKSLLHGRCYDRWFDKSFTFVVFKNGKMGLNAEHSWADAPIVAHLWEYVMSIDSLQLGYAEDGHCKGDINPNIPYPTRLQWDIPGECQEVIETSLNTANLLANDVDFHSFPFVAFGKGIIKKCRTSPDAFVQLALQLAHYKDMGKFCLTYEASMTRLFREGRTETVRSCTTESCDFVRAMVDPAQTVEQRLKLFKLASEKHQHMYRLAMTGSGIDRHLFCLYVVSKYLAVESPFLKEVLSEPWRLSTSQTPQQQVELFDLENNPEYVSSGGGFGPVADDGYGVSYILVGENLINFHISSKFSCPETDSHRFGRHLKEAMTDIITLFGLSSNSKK

[2] = biological target: T2, Carnitine O-palmitoyltransferase 1, liver isoform (Rattus norvegicus, UniProt P32198); experiment: as §1
T2 sequence (P32198 whole entry): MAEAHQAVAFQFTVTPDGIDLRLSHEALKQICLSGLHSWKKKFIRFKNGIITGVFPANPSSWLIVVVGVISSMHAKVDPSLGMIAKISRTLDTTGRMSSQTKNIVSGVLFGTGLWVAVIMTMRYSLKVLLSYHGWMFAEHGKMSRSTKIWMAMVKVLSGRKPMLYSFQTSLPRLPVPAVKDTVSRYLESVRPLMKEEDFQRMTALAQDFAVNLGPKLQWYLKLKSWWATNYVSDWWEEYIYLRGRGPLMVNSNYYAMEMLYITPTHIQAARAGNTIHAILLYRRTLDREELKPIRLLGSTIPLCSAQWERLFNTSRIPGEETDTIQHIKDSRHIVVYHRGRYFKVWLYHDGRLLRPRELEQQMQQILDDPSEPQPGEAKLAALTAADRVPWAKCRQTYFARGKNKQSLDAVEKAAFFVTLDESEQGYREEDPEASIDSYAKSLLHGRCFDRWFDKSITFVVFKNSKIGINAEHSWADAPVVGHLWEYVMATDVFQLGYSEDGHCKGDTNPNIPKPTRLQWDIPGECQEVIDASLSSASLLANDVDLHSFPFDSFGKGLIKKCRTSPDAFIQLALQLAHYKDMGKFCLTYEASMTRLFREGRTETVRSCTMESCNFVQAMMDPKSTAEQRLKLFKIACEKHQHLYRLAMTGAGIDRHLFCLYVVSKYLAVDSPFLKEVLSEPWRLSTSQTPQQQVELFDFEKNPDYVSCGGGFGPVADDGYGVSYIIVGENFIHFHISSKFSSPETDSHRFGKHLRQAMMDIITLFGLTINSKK

[3] = biological target: T3, Carnitine O-palmitoyltransferase 1, muscle isoform (Homo sapiens, UniProt Q92523); experiment: SUPPLEMENTARY: Inhibition of Carnitine palmitoyltransferase 1, muscle isoform; parameters: species or system Muscle tissue
T3 sequence (Q92523 whole entry): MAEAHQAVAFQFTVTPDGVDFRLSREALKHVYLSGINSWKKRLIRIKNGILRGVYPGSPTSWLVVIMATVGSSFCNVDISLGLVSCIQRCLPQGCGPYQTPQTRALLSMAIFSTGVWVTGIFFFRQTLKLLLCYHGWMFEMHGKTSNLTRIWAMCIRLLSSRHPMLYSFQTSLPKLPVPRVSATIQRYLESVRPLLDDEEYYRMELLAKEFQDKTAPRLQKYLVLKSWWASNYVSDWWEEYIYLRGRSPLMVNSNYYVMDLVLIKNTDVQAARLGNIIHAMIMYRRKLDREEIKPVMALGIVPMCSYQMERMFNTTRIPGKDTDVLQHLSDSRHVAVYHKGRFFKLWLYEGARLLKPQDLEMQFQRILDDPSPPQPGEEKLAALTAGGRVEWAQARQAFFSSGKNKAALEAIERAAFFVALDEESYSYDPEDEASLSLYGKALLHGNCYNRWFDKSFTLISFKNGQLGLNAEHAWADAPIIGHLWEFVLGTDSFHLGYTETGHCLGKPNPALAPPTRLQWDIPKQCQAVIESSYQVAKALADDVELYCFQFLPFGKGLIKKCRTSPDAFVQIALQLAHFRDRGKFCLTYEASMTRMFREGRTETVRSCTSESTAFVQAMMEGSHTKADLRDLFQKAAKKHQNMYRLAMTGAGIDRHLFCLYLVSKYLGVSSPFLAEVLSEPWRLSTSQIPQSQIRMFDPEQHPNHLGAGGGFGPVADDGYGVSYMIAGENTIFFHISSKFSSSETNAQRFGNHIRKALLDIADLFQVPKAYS

[4] = biological target: T4, Carnitine O-palmitoyltransferase 2, mitochondrial (Rattus norvegicus, UniProt P18886); experiment: (§2) SUPPLEMENTARY: Inhibition of Carnitine palmitoyltransferase 2
T4 sequence (P18886 whole entry): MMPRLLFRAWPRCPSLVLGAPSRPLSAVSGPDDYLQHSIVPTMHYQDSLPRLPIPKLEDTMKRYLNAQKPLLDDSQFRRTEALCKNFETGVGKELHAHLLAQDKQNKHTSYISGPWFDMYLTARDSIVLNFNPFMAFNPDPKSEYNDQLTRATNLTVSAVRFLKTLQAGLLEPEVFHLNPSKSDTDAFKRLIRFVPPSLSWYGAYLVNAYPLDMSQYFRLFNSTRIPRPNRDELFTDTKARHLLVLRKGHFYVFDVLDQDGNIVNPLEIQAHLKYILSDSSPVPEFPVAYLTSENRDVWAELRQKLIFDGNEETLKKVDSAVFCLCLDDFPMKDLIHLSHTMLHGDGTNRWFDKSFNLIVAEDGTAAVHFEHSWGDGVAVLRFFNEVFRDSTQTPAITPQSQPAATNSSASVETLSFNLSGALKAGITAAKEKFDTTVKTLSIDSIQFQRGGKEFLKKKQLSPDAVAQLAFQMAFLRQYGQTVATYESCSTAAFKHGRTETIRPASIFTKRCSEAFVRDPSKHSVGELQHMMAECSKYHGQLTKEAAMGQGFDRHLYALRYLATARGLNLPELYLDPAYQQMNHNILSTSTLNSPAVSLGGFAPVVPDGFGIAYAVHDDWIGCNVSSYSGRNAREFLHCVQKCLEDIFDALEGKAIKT

[5] = biological target: T5, Carnitine O-palmitoyltransferase 2, mitochondrial (Homo sapiens, UniProt P23786); experiment: as §2
T5 sequence (P23786 whole entry): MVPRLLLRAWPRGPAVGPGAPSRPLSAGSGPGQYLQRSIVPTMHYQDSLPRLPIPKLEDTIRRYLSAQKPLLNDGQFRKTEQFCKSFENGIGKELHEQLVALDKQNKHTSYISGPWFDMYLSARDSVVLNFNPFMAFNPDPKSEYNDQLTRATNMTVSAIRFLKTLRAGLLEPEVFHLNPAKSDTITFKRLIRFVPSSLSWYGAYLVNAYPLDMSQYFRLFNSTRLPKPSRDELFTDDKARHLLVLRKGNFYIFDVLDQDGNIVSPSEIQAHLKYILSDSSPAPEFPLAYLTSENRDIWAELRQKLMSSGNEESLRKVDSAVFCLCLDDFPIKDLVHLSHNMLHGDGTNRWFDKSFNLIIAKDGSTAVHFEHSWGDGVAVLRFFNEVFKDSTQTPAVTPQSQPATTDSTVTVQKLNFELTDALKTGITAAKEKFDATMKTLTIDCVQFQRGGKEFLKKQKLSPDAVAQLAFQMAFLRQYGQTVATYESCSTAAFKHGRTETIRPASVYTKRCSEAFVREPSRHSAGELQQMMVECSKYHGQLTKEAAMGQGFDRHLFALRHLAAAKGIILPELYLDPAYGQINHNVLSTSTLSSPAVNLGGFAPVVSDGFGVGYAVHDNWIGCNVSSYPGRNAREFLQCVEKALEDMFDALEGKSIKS

[6] = SUPPLEMENTARY: PAMPA permeability assay; assay type: physicochemical; conditions: read-out: Permeability
[7] = SUPPLEMENTARY: Lipophilicity (log D) Determination by high-throughput shake-flask; assay type: physicochemical; conditions: octanol/water
[8] = SUPPLEMENTARY: Lyophilisation Solubility Assay (LYSA); assay type: physicochemical; conditions: read-out: Kinetic_solubility

Row | Structure (SMILES) | IC50 [1] [nM] | IC50 [2] [nM] | IC50 [3] [nM] | IC50 [4] [nM] | IC50 [5] [nM] | Papp [6] [×10⁻⁶ cm/s] | logD [7] | solubility kinetic [8] [µg/mL]
1 | O=C(O)c1ccc(C(=O)Nc2nn(Cc3ccc(OC(F)F)cc3)c3ccc(F)cc23)cc1 | 156 | 514 | 628 | > 100000 | > 100000 | 3.15 | 0.92 | 70 (≈ 154 µM)
2 | Nc1cncc(-c2nc([C@H]3CCCCN3C(=O)COc3ccccc3)no2)c1 | 144 | 923 | > 100000 | > 100000 | 19000 | 5.07 | 2.39 | 19 (≈ 50.1 µM)
3 | Cc1cc(-c2nc([C@H]3CCCCN3C(=O)COc3ccccc3)no2)[nH]n1 | 188 | 146 | 62700 | > 100000 | > 100000 | 6.09 | 2.57 | 52 (≈ 142 µM)
4 | COc1ccc(Cl)cc1S(=O)(=O)N1CCc2ccc(C(=O)Nc3ccn(CC(=O)O)n3)cc21 | 84.7 | 99.9 | 8100 | > 100000 | > 100000 | 0.23 | 1.15 | > 526
5 | CCN1C(=O)CC(C)(C)c2ccc(-c3nc([C@H]4CCCCN4C(=O)COc4ccccc4)no3)cc21 | 168 | 172 | > 100000 | > 100000 | > 100000 | 0.4 | > 3 | < 1
6 | O=C([C@H]1CCCCN1C(=O)COc1ccccc1)N1Cc2ccc(C3CCOC3)cc2C1 (stereo partly specified) | 63.5 | 77.2 | > 100000 | 701 | 473 | 4.71 | 2.72 | 46 (≈ 106 µM)
7 | COc1ccc(Cl)cc1CN1C(=O)OC(C)(C)c2ccc(C(=O)Nc3nc(CC(=O)O)cs3)cc21 | 58.7 | 59.7 | 1010 | > 100000 | > 100000 | 1.93 | 1.17 | 150 (≈ 291 µM)
